This note sets out measurements from ChEMBL document CHEMBL1201862, “PubChem BioAssay data set” (2004).

SMILES strings stand for the structures.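 Protocol summary: plate cells (96-well), add compound at 5 concentrations, incubate 48 h, interpolate endpoints linearly. GI50: concentration for 50% inhibition of growth.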 Active and inactive are the calls of the source. No stated cut-off is given here; in the data, active = GI50 up to about 1.1 µM and inactive = higher.

Test systems include DLD-1; DMS-114; DMS-273; HOP-18; KM-20L2; M19-MEL; SNB-78; RXF 631; XF498.
Common to all, as to assay: growth of human tumour cells (NCI), 48 h

Take `Cn1cnc([N+](=O)[O-])c1Sc1nc2cc(Cl)c(F)cc2[nH]1`: the GI50 in the assay with DLD-1 is 7.67 µM (inactive); in the assay on DMS-114 it was 6.35 µM (inactive); in the assay with DMS-273 it was 3.54 µM (inactive); in the assay on HOP-18, 7.8 µM (inactive); in the assay with KM-20L2, 11.4 µM (inactive); in the assay on M19-MEL, 11.7 µM (inactive). Moreover, the GI50 in the assay with SNB-78 was 2.43 µM (inactive).
In the case of `COc1cc2c([C@@H](OC(=O)c3ccccc3)c3ccc4c(c3)OCO4)nccc2c(OC)c1OC`, the GI50 with DLD-1 was 53.3 µM (inactive); with DMS-114, 16.4 µM (inactive); with DMS-273 it was 32.4 µM (inactive); in the assay on HOP-18 it was > 100 µM (inactive); in the assay on KM-20L2, 42.1 µM (inactive); with M19-MEL it was 42.2 µM (inactive). Further, the GI50 in the assay on RXF 631 was 20.5 µM (inactive); in the assay with SNB-78, 85.7 µM (inactive); with XF498, 13.6 µM (inactive).
`O=c1[nH][nH]c(=O)[nH]1`: the GI50 in the assay on DLD-1, with DMS-273, in the assay with KM-20L2, with M19-MEL, with SNB-78 and in the assay on XF498 was > 100 µM (inactive) each time.
With `N#CC(C(=O)/C(=N/N)C(C#N)c1ccccc1)c1ccccc1` (centres undefined), the GI50 in the assay with DLD-1, with DMS-114, in the assay on HOP-18, with M19-MEL, in the assay on RXF 631 and in the assay with SNB-78 was > 100 µM (inactive) in each case. The GI50 in the assay with XF498 was > 100 µM (inactive).
As for `CC12CCC(=O)N1c1cccnc1N2` (centres undefined), the GI50 with DLD-1, in the assay with DMS-114, in the assay on KM-20L2, in the assay with M19-MEL, with SNB-78 and in the assay on XF498 was > 100 µM (inactive) each time.
As for `COC1C(OC(=O)c2ccc(C)[nH]2)C(O)C(Oc2ccc3c(O)c(NC(=O)c4c[nH]c(C(=O)Nc5c(O)c6ccc(OC7OC(C)(C)C(OC)C(OC(=O)c8ccc(C)[nH]8)C7O)c(C)c6oc5=O)c4C)c(=O)oc3c2C)OC1(C)C` (centres undefined), the GI50 in the assay on DLD-1 was 1.86 µM (inactive); with DMS-114, 2.02 µM (inactive); in the assay on DMS-273 it was 2.86 µM (inactive); in the assay with HOP-18, 0.596 µM (active); in the assay with KM-20L2 it was 2.4 µM (inactive); in the assay with M19-MEL it was 1.64 µM (inactive). The GI50 with SNB-78 was 1.56 µM (inactive); in the assay on XF498, 2.18 µM (inactive).
For `CN(C)CCNC(=O)c1ccc(Cl)c2c(Nc3ccc(S(N)(=O)=O)cc3)c3ccccc3nc12`, the GI50 with DLD-1 was 1.31 µM (inactive); in the assay on DMS-114, 1.76 µM (inactive); in the assay on DMS-273, 1.55 µM (inactive); in the assay on HOP-18 it was 2.2 µM (inactive); in the assay on KM-20L2, 2.68 µM (inactive); with M19-MEL, 1.63 µM (inactive). The results for the GI50 in the assay on RXF 631 and with XF498 were 0.566 µM (active) and 0.165 µM (active), respectively.
Take `CC12C=CC(=O)C=C1CCC1C3CCC(O)(C(=O)CO)C3(C)CC(O)C12F` (centres undefined): the GI50 in the assay on DLD-1, in the assay on DMS-114, in the assay on DMS-273, with KM-20L2, in the assay with M19-MEL and in the assay on SNB-78 was > 100 µM (inactive) in each case. Moreover, the GI50 in the assay with XF498 was > 100 µM (inactive).
As to `CN(C)P(=O)(/C(N)=N/Nc1ccc([N+](=O)[O-])cc1)N(C)C`, the GI50 is > 100 µM (inactive) in the assay on DLD-1; 61.7 µM (inactive) in the assay on DMS-114; > 100 µM (inactive) in the assay on DMS-273; > 100 µM (inactive) in the assay with KM-20L2; > 100 µM (inactive) in the assay on M19-MEL; > 100 µM (inactive) in the assay on SNB-78. Further, in the assay on XF498, the GI50 was > 100 µM (inactive).
Turning to `CC12CCC([C@H](N3CCOCC3)/C1=N\OCCN1CCCC1)C2(C)C` (some centres undefined), the GI50 in the assay on DLD-1 was > 100 µM (inactive); in the assay on DMS-114, 71.9 µM (inactive); in the assay with DMS-273 it was > 100 µM (inactive); in the assay with HOP-18 it was > 100 µM (inactive); in the assay with KM-20L2, > 100 µM (inactive); in the assay on M19-MEL it was > 100 µM (inactive). Moreover, the GI50 with RXF 631 and with SNB-78 was > 100 µM (inactive) in each case.
As for `N#C/C(=C1\OC(=N)C(c2ccc(Cl)cc2Cl)C1=O)c1ccc(Cl)cc1Cl` (centres undefined), the GI50 in the assay on DLD-1, in the assay with DMS-114, in the assay on DMS-273, in the assay with KM-20L2, with M19-MEL and in the assay on RXF 631 was > 100 µM (inactive) in each case. Besides, the GI50 in the assay with SNB-78 is > 100 µM (inactive); in the assay on XF498, 86.9 µM (inactive).
For the compound `CC1=Nc2ccccc2S(=O)(=O)N1`, the GI50 in the assay on DLD-1, in the assay on DMS-114, with DMS-273, in the assay with HOP-18, with KM-20L2 and in the assay on M19-MEL was > 100 µM (inactive) throughout. Also, the GI50 in the assay with SNB-78 is > 100 µM (inactive).
`CCOC(=O)C(C(=O)OCC)S(C)(=O)=O`: the GI50 with DLD-1, in the assay on DMS-114, in the assay with DMS-273, with HOP-18, in the assay on KM-20L2 and in the assay on M19-MEL was > 100 µM (inactive) throughout. For the same compound, the GI50 in the assay on RXF 631 and in the assay with XF498 was > 100 µM (inactive) in each case.
Regarding `COc1cc(C(=O)C/C(CCC(=O)Nc2ccc(Cl)cc2Cl)=N/Nc2nnc(C)n2N)ccc1O`, the GI50 in the assay with DLD-1, in the assay on DMS-273, with HOP-18, in the assay with KM-20L2, with M19-MEL and with SNB-78 was > 100 µM (inactive) each time. Further, the GI50 in the assay with XF498 is > 100 µM (inactive).
Regarding `CCc1ccc(Nc2ccc([N+](=O)[O-])cc2[N+](=O)[O-])cc1`, the GI50 in the assay on DLD-1 is > 100 µM (inactive); with DMS-114 it was 29.4 µM (inactive); in the assay with DMS-273 it was 96.6 µM (inactive); in the assay with KM-20L2, 69.3 µM (inactive); with M19-MEL, > 100 µM (inactive); with SNB-78, 87.3 µM (inactive). In the assay on XF498, the GI50 was > 100 µM (inactive).
Consider `CNC(SC)=C1C(=O)OC(C)(C)OC1=O`, for which the GI50 in the assay on DLD-1 is 22.2 µM (inactive); with DMS-114 it was 34.8 µM (inactive); in the assay on DMS-273, 0.499 µM (active); in the assay with HOP-18 it was > 100 µM (inactive); in the assay with KM-20L2, > 100 µM (inactive); in the assay with M19-MEL, > 100 µM (inactive). Also, the figures for the GI50 in the assay on SNB-78 and in the assay with XF498 were 36.4 µM (inactive) and > 100 µM (inactive), respectively.
`CC(=O)O[C@H]1CCC2[C@@H]3CCC4c5nonc5CC[C@]4(C)C3CC[C@@]21C` (some centres undefined): the GI50 in the assay on DLD-1, with DMS-114, in the assay with DMS-273, with HOP-18, in the assay on KM-20L2 and with M19-MEL was > 10 µM (inactive) throughout. In addition, the GI50 with SNB-78 is > 10 µM (inactive).
On to `Nn1c(S)nnc1N/N=C1/C(=O)Nc2ccccc21`, for which the GI50 in the assay on DLD-1 was 48.9 µM (inactive); in the assay with DMS-114 it was > 100 µM (inactive); in the assay on HOP-18, 70.5 µM (inactive); in the assay on KM-20L2 it was > 100 µM (inactive); with M19-MEL, > 100 µM (inactive); in the assay with SNB-78 it was > 100 µM (inactive). In the assay with XF498, the GI50 was 37.9 µM (inactive).
On to `CC(O)c1ccc[n+](Cc2ccccc2)c1` (centres undefined), for which the GI50 in the assay on DLD-1, with DMS-114, with DMS-273, in the assay with HOP-18, in the assay with KM-20L2 and in the assay on M19-MEL was > 400 µM (inactive) in each case. The GI50 in the assay on RXF 631 and in the assay on XF498 was > 400 µM (inactive) in each case.
Turning to `O=C1c2ccccc2C(=O)C2C3c4ccccc4C(c4ccccc43)C12` (centres undefined), the GI50 with DLD-1 is > 100 µM (inactive); in the assay with DMS-114, 16.8 µM (inactive); with DMS-273, 19.1 µM (inactive); in the assay with KM-20L2, > 100 µM (inactive); in the assay on M19-MEL it was 18.5 µM (inactive); in the assay on SNB-78 it was 18.7 µM (inactive).
For `COc1ccc(C2=NN(c3ccccc3)C[N+](c3ccc(C)cc3)=N2)cc1`, the GI50 in the assay with DLD-1 was 40.6 µM (inactive); in the assay on DMS-114, 24.7 µM (inactive); in the assay on DMS-273 it was > 10 µM (inactive); in the assay with KM-20L2 it was 59 µM (inactive); in the assay on M19-MEL, 29.9 µM (inactive); in the assay with SNB-78 it was 27.9 µM (inactive). The GI50 in the assay with XF498 was 25.3 µM (inactive).
Consider `CCOC(=O)/C(=C/c1cccc(C#N)c1)N(CC)CC`, for which the GI50 with DLD-1, in the assay on DMS-114, in the assay with HOP-18, with M19-MEL, in the assay on RXF 631 and in the assay on SNB-78 was > 100 µM (inactive) throughout. Besides, the GI50 in the assay with XF498 is > 100 µM (inactive).
As for `CCN1CCC(O)(c2ccc(Cl)c(Cl)c2)C(C(=O)c2ccc(Cl)c(Cl)c2)C1` (centres undefined), the GI50 in the assay with DLD-1 is 17.8 µM (inactive); in the assay on DMS-114 it was 17.1 µM (inactive); in the assay on DMS-273, 18.1 µM (inactive); in the assay with KM-20L2, 17.9 µM (inactive); in the assay on XF498, 19.2 µM (inactive).
On to `O=C(CCN1CCN(c2ccccc2)CC1)N1CCc2c([nH]c3ccccc23)C1c1cccnc1` (centres undefined), for which the GI50 with DLD-1 was 18.4 µM (inactive); in the assay with DMS-114, 13.2 µM (inactive); with DMS-273, 17.5 µM (inactive); with HOP-18, 18.5 µM (inactive); in the assay on KM-20L2, 15.9 µM (inactive); in the assay on M19-MEL, 19.9 µM (inactive). Further, the GI50 with SNB-78 is 16.1 µM (inactive).
Consider `C=CCC(O)c1cc(OC)ccc1OC` (centres undefined), for which the GI50 in the assay on DMS-114, in the assay on DMS-273, in the assay with M19-MEL, in the assay on RXF 631 and with XF498 was > 100 µM (inactive) throughout.
With `O=C(c1ccc(Cl)cc1)N(C(=S)N1CCN(c2ccccn2)CC1)c1ccccc1`, the GI50 is > 100 µM (inactive) in the assay on DLD-1; 42.5 µM (inactive) in the assay on DMS-114; 78.3 µM (inactive) in the assay on DMS-273; > 100 µM (inactive) with HOP-18; > 100 µM (inactive) in the assay on KM-20L2; > 100 µM (inactive) in the assay with M19-MEL. The GI50 in the assay on SNB-78 was > 100 µM (inactive).
